Reference: patent US6376666B1 (Nauchno-Issledovatelsky Institut Farmakologii Rossiiskoi …, priority 1994, dated 2002)
Marks after values point to notes of the source that are not given here.

What was measured:
[1] = test system: ventricular fibrillations; experiment: ventricular fibrillation, 7-min occlusion and reperfusion of coronary artery in anesthetized rats; type: in vivo
Method in brief: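 Male rats (180-240 g) under nembutal (60 mg/kg i.v.), open chest, ventilated, given compounds i.v. (1,0 or 2,0 mg/kg; saline control). Left coronary artery occluded 7 min, then reperfused, with lead II ECG. Fibrillations and arrhythmias counted and scored on a 0–4 point scale.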

cats = experiment: hemodynamics and activity of intact heart in cats under anesthesia; type: in vivo; details: for Cardiac volume, change from basal level / Heart rate, change from basal level / Mean blood flow accelaration (aortic), change from basal level / Mean blood pressure, change from basal level / Stroke volume, change from basal level: cats
Description: The effects of compounds on the hemodynamics and activity of intact heart were studied in cats under anesthesia. The experiments were carried out under conditions of open chest. The phase curve of aortic blood flow was the main index of cardiac activity. The compounds were administered i.v. in physiological solution. The t-Student' test was used to estimate the statistical significance.

[2] = 0.5 mg/kg i.v., after injection
[3] = 1.0 mg/kg i.v., after injection

## CCOc1ccc2nc(SCCN(CC)CC)[nH]c2c1 [Compound IX, 2-[2-(Diethylamino)ethylthio]-5-ethoxybenz-imidazole]
[1]; anesthetized rats i.v., bonnecor 1,0, IX 2,0, X (printed) 1,0 mg/kg
  antifibrillatory effect, in words: reduced the number of both the ventricular fibrillations and lethality hazardous arrhythmia
[1]; anesthetized rats, 2 mg/kg i.v., 20 animals, control 15 of 24
  Number of VF (ventricular fibrillations): 4*
[1]; anesthetized rats, 2 mg/kg i.v., 20 animals, control 22 of 24
  Number of LHA (lethality hazardous arrhythmia): 12*
[1]; anesthetized rats, 2 mg/kg i.v., 20 animals, control 24 of 24
  Total numbers of arrhyt.: 17^
[1]; anesthetized rats, 2 mg/kg i.v., 20 animals, control 66
  Severity of arrhythmias: 32** points
cats; cats i.v., same doses as bradycardia
  effect on contractile function of heart, in words: slightly enhanced the contractility of myocardium
cats; cats i.v., VIII 1,0, IX 0,5 and 1,0, XX 1,0 and 2,0 mg/kg
  duration of bradycardia after administration: 30 min
cats; cats i.v., VIII 1,0, IX 0,5 and 1,0, XX 1,0 and 2,0 mg/kg, XXIII 1.0, verapamil 0.5 mg/kg
  effect on heart rate, in words: expressed bradycardia
cats; 0.5 mg/kg i.v., after 2 min
  Cardiac volume, change from basal level: −3.5 ± 6.0%
  Heart rate, change from basal level: −11.6 ± 2.8 %
  Mean blood flow accelaration (aortic), change from basal level: +11.0 ± 8.8%
  Mean blood pressure, change from basal level: +4.4 ± 4.7%
  Stroke volume, change from basal level: +9.4 ± 6.5%
cats; 0.5 mg/kg i.v., after 5 min
  Cardiac volume, change from basal level: −1.7 ± 4.8%
  Mean blood flow accelaration (aortic), change from basal level: +0.6 ± 4.9%
  Mean blood pressure, change from basal level: −5.4 ± 2.3%
  Stroke volume, change from basal level: +5.6 ± 5.6%
cats; 0.5 mg/kg i.v., after 10 min
  Cardiac volume, change from basal level: −4.2± 2.1%
  Heart rate, change from basal level: −7.3 ± 1.6 %
  Mean blood flow accelaration (aortic), change from basal level: +3.0 ± 4.0%
  Mean blood pressure, change from basal level: −1.2 ± 3.6%
  Stroke volume, change from basal level: +3.6 ± 3.0%
cats; 0.5 mg/kg i.v., after 20 min
  Cardiac volume, change from basal level: −6.1 ± 3.4%
  Heart rate, change from basal level: −4.5 ± 2.2%
  Mean blood flow accelaration (aortic), change from basal level: +5.6 ± 5.1%
  Mean blood pressure, change from basal level: −4.1 ± 4.8%
  Stroke volume, change from basal level: −0.7 ± 4.0%
cats; 0.5 mg/kg i.v., after 30 min
  Cardiac volume, change from basal level: −2.8 ± 7.8%
  Heart rate, change from basal level: −5.3 ± 2.3%
  Mean blood flow accelaration (aortic), change from basal level: +1.8 ± 5.8%
  Mean blood pressure, change from basal level: −4.9 ± 6.5%
  Stroke volume, change from basal level: +1.8 ± 9.3%
cats; [2]
  Cardiac volume, change from basal level: +6.5 ± 2.8%
  Heart rate, change from basal level: −8.0 ± 3.5%
  Mean blood flow accelaration (aortic), change from basal level: +8.8 ± 5.8%
  Mean blood pressure, change from basal level: −2.1 ± 3.0%
  Stroke volume, change from basal level: +17.0 ± 5.5 %
cats; 1.0 mg/kg i.v., after 2 min
  Cardiac volume, change from basal level: +2.2 ± 3.5%
  Heart rate, change from basal level: −14.1 ± 2.1 %
  Mean blood flow accelaration (aortic), change from basal level: ± 8.6 +3.8%
  Mean blood pressure, change from basal level: +0.6 ± 2.7%
  Stroke volume, change from basal level: +19.3 ± 4.6 %
cats; 1.0 mg/kg i.v., after 5 min
  Cardiac volume, change from basal level: +1.7 ± 6.8%
  Heart rate, change from basal level: −10.6 ± 1.5 %
  Mean blood flow accelaration (aortic), change from basal level: +13.6 ± 5.7%
  Mean blood pressure, change from basal level: −3.8 ± 3.4%
  Stroke volume, change from basal level: +13.8 ± 7.8%
cats; 1.0 mg/kg i.v., after 10 min
  Cardiac volume, change from basal level: −1.3 ± 6.8%
  Heart rate, change from basal level: −7.1 ± 1.0 %
  Mean blood flow accelaration (aortic), change from basal level: +9.6 ± 3.9 %
  Mean blood pressure, change from basal level: −6.8 ± 2.5 %
  Stroke volume, change from basal level: +5.9 ± 6.3%
cats; 1.0 mg/kg i.v., after 20 min
  Cardiac volume, change from basal level: −0.2 ± 3.8%
  Heart rate, change from basal level: −4.2 ± 1.9%
  Mean blood flow accelaration (aortic), change from basal level: +13.1 ± 5.0 %
  Mean blood pressure, change from basal level: −1.9 ± 2.9%
  Stroke volume, change from basal level: +4.4 ± 4.5%
cats; 1.0 mg/kg i.v., after 30 min
  Cardiac volume, change from basal level: −2.5 ± 5.1%
  Heart rate, change from basal level: −2.3 ± 3.5%
  Mean blood flow accelaration (aortic), change from basal level: +3.9 ± 2.0%
  Mean blood pressure, change from basal level: −2.7 ± 2.9%
  Stroke volume, change from basal level: +0.7 ± 6.7%
cats; [3]
  Cardiac volume, change from basal level: +17.6 ± 8.2%
  Heart rate, change from basal level: −15.4 ± 2.7 %
  Mean blood flow accelaration (aortic), change from basal level: +14.8 ± 8.8%
  Mean blood pressure, change from basal level: −1.6 ± 7.3%
  Stroke volume, change from basal level: +34.21 ± 0.6 %
